Measured values published in patent US20160220710A1, “COMPOSITIONS AND METHODS FOR DELIVERING PHARMACEUTICAL AGENTS” (THE REGENTS OF THE UNIVERSITY OF MICHIGAN, priority 2015, published 2016).

Assays:
[1] = tested on: alveolar macrophages (CD11c) and neutrophils (Ly6G); experiment: Flow cytometry of alveolar exudate of drug fed mice; type: in vivo; conditions: 8 weeks
From the text: Mice (4 week old, male C57Bl6) were purchased from the Jackson Laboratory (Bar Harbor, Me.) and acclimatized for 1 week in a specific-pathogen-free animal facility. Animal care was provided by the University of Michigan's Unit for Laboratory Animal Medicine (ULAM) and the experimental protocol was approved by the Committee on Use and Care of Animals in accordance with NIH guidelines. An oral diet containing CFZ was fed to mice as previously described (Baik J, et al., Antimicrob. Agents Chemother. 2013; 57:1218-30; Baik J, et al., PLoS One 2012; 7:e47494; Keswani R K, et al., Mol. Pharm. 2015:10). […]
Mice were euthanized as described above and the trachea was surgically exposed and cannulated with an 18G luer stub and the lungs were lavaged to obtain alveolar exudate by instilling calcium- and magnesium-free Dulbecco's PBS (DPBS) containing 0.5 mM EDTA in 1-ml aliquots for a total of 6 ml. […] Viable (using Trypan Blue staining method) and CLDI containing cells were counted using a hemocytometer.
Peritoneal and alveolar lavage was performed as stated before to obtain the respective exudates. […] For CLDI fluorescence signal experiments, cells were pelleted by centrifugation (100×g for 5 min) followed by resuspension in PBS+5% FBS (500 μl). […] These cells also had extremely high side-scatter that were measured as saturated signals. […]

[2] = tested on: IκB; experiment: Western blot of phosphorylated IκB; type: cell-based, murine; conditions: 1 h
Method: The murine macrophage cell line RAW 264.7 was purchased from ATCC (Manassas, Va.) and maintained in DMEM (Life Technologies, Carlsbad, Calif.) supplemented with 10% FBS. Soluble CFZ or isolated CLDIs were added at various concentrations in DMEM with 5% FBS to 6-well plates containing 4×10^5 cells/well and incubated (24 h at 37° C. and 5% CO2). Culture supernatants were harvested at 24 h, centrifuged (1500×g for 5 min), and stored (−20° C.) in frozen aliquots prior to analysis. For experiments involving TLR stimulation, cells were washed twice with pre-warmed DPBS to remove extracellular, non-phagocytosed CLDIs or CFZ, and then the cells were serum-starved for 18 h in DMEM. Supernatants were collected from unstimulated cells and cells stimulated with 200 ng/ml Pam3 or 1 μg/ml LPS in DMEM.

[3] = tested on: caspase 1, IL-1β, TNFα, IL-1RA; experiment: Inflammasome proteins and cytokines in organs of CFZ-treated mice; type: in vivo
Method: Clofazimine (CFZ, Sigma-Aldrich, C8895) was prepared in sesame oil (Shirakiku, Japan, or Roland, China) and Powdered Lab Diet 5001 (PMI International, Inc., St. […] Baik et al., 2011, supra). Control mice were fed with the same diet without CFZ. The animal protocol was approved by the University of Michigan's Animal Care and Use Committee in accordance with the National Institutes of Health guidelines (UCUCA #PRO0005111). Mouse Bronchoalveolar Lavage (BAL) Harvest and Isolation of Alveolar Macrophages, Immunohistochemistry and Imaging, SDS-PAGE and Western Blot, Cytokine Measurements

[4] = 2 weeks of oral drug administration

## CC(C)/N=c1\cc2n(-c3ccc(Cl)cc3)c3ccccc3nc-2cc1Nc1ccc(Cl)cc1 [CFZ, 3-(p-chloroanilino)-10-(p-chlorophenyl)-2, 10-dihydro-2-isopropyliminophenazine]
[1]
  % of CLDI(+) cells that are CD11c(+): > 99%
  % of Ly6G(+) cells detected as CLDI+: < 2%
[2]; LPS stimulation
  IκB phosphorylation: inhibited LPS/TLR4-mediated IκB phosphorylation
[2]; Pam3 stimulation
  IκB phosphorylation: the Pam3/TLR2-mediated response was not affected
[3]; 2 and 8 weeks, except liver at 2 weeks
  TNFα expression in organs: unchanged by CFZ at both 2 and 8 weeks
[3]; 2 weeks of CFZ
  cleavage of hepatic caspase 1 and IL-1β: only moderate cleavage of hepatic caspase 1 and IL-1β
[3]; [4]
  IL-1RA in the liver: did not cause significant IL-1RA change in the liver
  spleen and lung IL-1RA levels: slightly increased
[3]; 8 weeks
  IL-1RA levels in the kidney: unchanged
[3]; 8 weeks of CFZ
  hepatic caspase 1 cleavage and IL-1β maturation: significantly reduced
[3]; 8 weeks of oral administration
  IL-1RA expression in liver, spleen and lung: major upregulation of IL-1RA expression
[3]; mouse, in vivo
  IL-1β levels in the spleen, lung and kidney: did not change
